Results: patent publication US20110301146A1 (ONCOTHERAPY SCIENCE, INC., priority 2008, published 2011)

Molecular target: T1, GSK-3beta (Homo sapiens, UniProt P49841)
T1 construct: purchased Invitrogen
Assay: Z'-LYTE kinase assay (FRET, SER/THR 9 peptide)
Assay type: biochemical
Settings: 0.04 ng/micro-l GSK-3beta (Invitrogen), 2 micro-M SER/THR 9 peptide, 15 micro-M ATP, 1 hour at room temperature, 1% DMSO
Protocol: The Z′-LYTE kinase assay kit employs a fluorescence resonance energy transfer (FRET) between two fluorophores, coumarin and fluorescein, attached to each end of a substrate peptide.
For 0% phosphorylation control, ATP was omitted from the reaction mixture. For 100% phosphorylation control, SER/THR 9 phosphopeptide was used in place of the SER/THR 9 peptide. Following 1 hour incubation at room temperature, the reaction was stopped by the addition of half assay volume of development solution and further incubated for 1 hour at room temperature. […] The extent of phosphorylation was determined according to the 0% and 100% phosphorylation control samples using the following equation: […]
IC50 values were calculated by nonlinear four parameter fit using SigmaPlot, version 10.0 (Systat Software, Inc.).

T1 sequence (P49841 whole entry): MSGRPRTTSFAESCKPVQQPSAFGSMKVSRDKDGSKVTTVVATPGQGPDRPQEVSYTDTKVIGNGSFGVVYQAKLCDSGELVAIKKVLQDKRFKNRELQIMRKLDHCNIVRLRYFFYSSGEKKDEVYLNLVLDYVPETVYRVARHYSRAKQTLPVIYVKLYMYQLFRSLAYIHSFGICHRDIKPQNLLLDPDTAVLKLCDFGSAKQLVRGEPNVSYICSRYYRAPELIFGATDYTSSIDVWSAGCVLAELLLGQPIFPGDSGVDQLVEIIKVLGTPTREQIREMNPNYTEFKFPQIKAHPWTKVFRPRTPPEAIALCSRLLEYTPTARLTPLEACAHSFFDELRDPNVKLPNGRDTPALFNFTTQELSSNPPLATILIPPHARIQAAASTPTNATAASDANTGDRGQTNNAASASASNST

| SMILES | IC50 [nM] |
| --- | --- |
| O=C(N[C@H]1CCCNC1)c1ccc(O)c2[nH]c(-c3ccc(N4CCNCC4)s3)nc12 [Example 57, (S)-7-hydroxy-2-(5-(piperazin-1-yl)thiophen-2-yl)-N-(piperidin-3-yl)-1H-benzo[d]imidazole-4-carboxamide] | 38 |
| CN1CCCC(NC(=O)c2ccc(O)c3[nH]c(-c4cccs4)nc23)C1 (stereo not drawn) [Example 41, 7-Hydroxy-N-(1-methylpiperidin-3-yl)-2-(thiophen-2-yl)-1H-benzo[d]imidazole-4-carboxamide] | 180 |
| O=C(NC1CCNC1)c1ccc(O)c2[nH]c(-c3cccs3)nc12 (stereo not drawn) [Example 44, 7-Hydroxy-N-(pyrrolidin-3-yl)-2-(thiophen-2-yl)-1H-benzo[d]imidazole-4-carboxamide] | 110 |
| O=C(NC1CCNCC1)c1ccc(O)c2[nH]c(C3CC3)nc12 [Example 10, 2-cyclopropyl-4-hydroxy-N-(piperidin-4-yl)-1H-benzo[d]imidazole-7-carboxamide] | 30 |
| O=C(NC1CCNCC1)c1ccc(O)c2[nH]c(-c3cccs3)nc12 [Example 40, 7-Hydroxy-N-(piperidin-4-yl)-2-(thiophen-2-yl)-1H-benzo[d]imidazole-4-carboxamide] | 18 |
| O=C(NC1CCNC1)c1ccc(O)c2[nH]c(C3CC3)nc12 (stereo not drawn) [Example 12, 2-cyclopropyl-4-hydroxy-N-(pyrrolidin-3-yl)-1H-benzo[d]imidazole-7-carboxamide] | 210 |
| O=C(NC[C@@H]1CCCNC1)c1ccc(O)c2[nH]c(Cc3cccs3)nc12 [Example 58, (R)-7-hydroxy-N-(piperidin-3-ylmethyl)-2-(thiophen-2-ylmethyl)-1H-benzo[d]imidazole-4-carboxamide] | 100 |
| O=C(N[C@H]1CCCNC1)c1ccc(O)c2[nH]c(-c3ccccc3)nc12 [Example 17, (S)-4-Hydroxy-2-phenyl-N-(piperidin-3-yl)-1H-benzo[d]imidazole-7-carboxamide] | 120 |
| O=C(NC1CCCNC1)c1ccc(O)c2[nH]c(C3CC4CCC3C4)nc12 (stereo not drawn) [Example 49, 2-(Bicyclo[2.2.1]heptan-2-yl)-7-hydroxy-N-(piperidin-3-yl)-1H-benzo[d]imidazole-4-carboxamide] | 230 |
| O=C(NCC1CCNC1)c1ccc(O)c2[nH]c(-c3cccs3)nc12 (stereo not drawn) [Example 46, 7-Hydroxy-N-(pyrrolidin-3-ylmethyl)-2-(thiophen-2-yl)-1H-benzo[d]imidazole-4-carboxamide] | 25 |
| O=C(N[C@H]1CCCNC1)c1ccc(O)c2[nH]c(C3CC3)nc12 [Example 9, (S)-2-cyclopropyl-4-hydroxy-N-(piperidin-3-yl)-1H-benzo[d]imidazole-7-carboxamide] | 100 |
| O=C(c1ccc(O)c2[nH]c(-c3cccs3)nc12)N1CCNCC1 [Example 21, (7-hydroxy-2-[thiophen-2-yl]-1H-benzo[d]imidazol-4-yl)(piperazin-1-yl)methanone] | 22000 |
| O=C(N[C@H]1CCCNC1)c1ccc(O)c2[nH]c(Cc3cccs3)nc12 [Example 59, (S)-7-hydroxy-N-(piperidin-3-yl)-2-(thiophen-2-ylmethyl)-1H-benzo[d]imidazole-4-carboxamide] | 170 |
| O=C(NCC1CCNCC1)c1ccc(O)c2[nH]c(-c3cccs3)nc12 [Example 42, 7-Hydroxy-N-(piperidin-4-ylmethyl)-2-(thiophen-2-yl)-1H-benzo[d]imidazole-4-carboxamide] | 100 |
| O=C(NCC1CCCNC1)c1ccc(O)c2[nH]c(-c3ccccc3)nc12 (stereo not drawn) [Example 19, 4-hydroxy-2-phenyl-N-(piperidin-3-ylmethyl)-1H-benzo[d]imidazole-7-carboxamide] | 130 |
| O=C(NC[C@H]1CCCNC1)c1ccc(O)c2[nH]c(Cc3cccs3)nc12 [Example 60, (S)-7-hydroxy-N-(piperidin-3-ylmethyl)-2-(thiophen-2-ylmethyl)-1H-benzo[d]imidazole-4-carboxamide] | 160 |
| O=C(N[C@H]1CC[C@H](O)CC1)c1ccc(O)c2[nH]c(-c3cccs3)nc12 [Example 20, 7-Hydroxy-N-(4-hydroxycyclohexyl)-2-(thiophen-2-yl)-1H-benzo[d]imidazole-4-carboxamide] | 26 |
| O=C(NCC1CCCCN1)c1ccc(O)c2[nH]c(-c3ccccc3)nc12 (stereo not drawn) [Example 18, 4-Hydroxy-2-phenyl-N-(piperidin-2-ylmethyl)-1H-benzo[d]imidazole-7-carboxamide] | 1500 |
| CC(C)(C)OC(=O)N1CCC[C@H](NC(=O)c2ccc(O)c3[nH]c(-c4ccc(Br)s4)nc23)C1 [Example 50, (S)-tert-Butyl 3-(2-(5-bromothiophen-2-yl)-7-hydroxy-1H-benzo[d]imidazole-4-carboxamido)piperidine-1-carboxylate] | 3400 |
| O=C(NCC1CCCCN1)c1ccc(O)c2[nH]c(-c3cccs3)nc12 (stereo not drawn) [Example 45, 7-Hydroxy-N-(piperidin-2-ylmethyl)-2-(thiophen-2-yl)-1H-benzo[d]imidazole-4-carboxamide] | 240 |

| SMILES | IC50 [nM] |
| --- | --- |
| O=C(N[C@H]1CCCNC1)c1ccc(O)c2[nH]c(C3CCCC3)nc12 [Example 16, (S)-2-Cyclopentyl-4-hydroxy-N-(piperidin-3-yl)-1H-benzo[d]imidazole-7-carboxamide] | 120 |
| O=C(NCC1CNC1)c1ccc(O)c2[nH]c(-c3cccs3)nc12 [Example 43, N-(Azetidin-3-ylmethyl)-7-hydroxy-2-(thiophen-2-yl)-1H-benzo[d]imidazole-4-carboxamide] | 43 |
| O=C(NCC1CCNCC1)c1ccc(O)c2[nH]c(C3CC3)nc12 [Example 5, 2-Cyclopropyl-4-hydroxy-N-(piperidin-4-ylmethyl)-1H-benzo[d]imidazole-7-carboxamide] | 320 |
| O=C(N[C@H]1CCCNC1)c1ccc(O)c2[nH]c(-c3ccc(Br)s3)nc12 [Example 51, (S)-2-(5-bromothiophen-2-yl)-7-hydroxy-N-(piperidin-3-yl)-1H-benzo[d]imidazole-4-carboxamide] | 16 |
| NC12CC3CC(C1)CC(NC(=O)c1ccc(O)c4[nH]c(-c5cccs5)nc14)(C3)C2 [Example 54, 2-(Thiophene-2-yl)-7-hydroxy-N-(adamantate-3-ylamino)-1H-benzo[d]imidazole-4-carboxamide] | 330 |
| N[C@H]1CC[C@H](NC(=O)c2ccc(O)c3[nH]c(-c4cccs4)nc23)CC1 [Example 47, N-(4-Aminocyclohexyl)-7-hydroxy-2-(thiophen-2-yl)-1H-benzo[d]imidazole-4-carboxamide] | 51 |
| O=C(NC1CCCNC1)c1ccc(O)c2[nH]c(C3CC3)nc12 (stereo not drawn) [Example 11, 2-cyclopropyl-4-hydroxy-N-(piperidin-3-yl)-1H-benzo[d]imidazole-7-carboxamide] | 190 |
| O=C(NC1CCC(C(=O)O)CC1)c1ccc(O)c2[nH]c(-c3cccs3)nc12 (stereo not drawn) [Example 72, 4-[7-hydroxy-2-(thiophen-2-yl)-1H-benzo[d]imidazole-4-carboxamido]cyclohexanecarboxylic Acid] | 12 |
| O=C(NCC1CNC1)c1ccc(O)c2[nH]c(C3CC3)nc12 [Example 13, N-(azetidin-3-ylmethyl)-2-cyclopropyl-4-hydroxy-1H-benzo[d]imidazole-7-carboxamide] | 140 |
| O=C(NCC1CCCNC1)c1ccc(O)c2[nH]c(C3CC4CCC3C4)nc12 (stereo not drawn) [Example 48, 2-(Bicyclo[2.2.1]heptan-2-yl)-7-hydroxy-N-(piperidin-3-ylmethyl)-1H-benzo[d]imidazole-4-carboxamide] | 68 |
| CN1CCCC(NC(=O)c2ccc(O)c3[nH]c(C4CC4)nc23)C1 (stereo not drawn) [Example 8, 2-cyclopropyl-4-hydroxy-N-(1-methylpiperidin-3-yl)-1H-benzo[d]imidazole-7-carboxamide] | 1300 |
| NC12CC3CC(C1)CC(NC(=O)c1ccc(O)c4[nH]c(C5CC6CCC5C6)nc14)(C3)C2 (stereo not drawn) [Example 53] | 1900 |
| O=C(NCC1CCCNC1)c1ccc(O)c2[nH]c(-c3cccs3)nc12 (stereo not drawn) [Example 39, 7-Hydroxy-N-(piperidin-3-ylmethyl)-2-(thiophen-2-yl)-1H-benzo[d]imidazole-4-carboxamide] | 8.6 |
| O=C(NCC1CCCNC1)c1ccc(O)c2[nH]c(C3CC3)nc12 (stereo not drawn) [Example 6, 2-Cyclopropyl-4-hydroxy-N-(piperidin-3-yl-methyl)-1H-benzo[d]imidazole-7-carboxamide] | 1600 |
| N[C@H]1CC[C@@H](CNC(=O)c2ccc(O)c3[nH]c(C4CC5CCC4C5)nc23)CC1 (stereo partly drawn) [Example 56, N-{[(cis)-4-Aminocyclohexyl]methyl}-2-(bicyclo[2.2.1]heptan-2-yl)-7-hydroxy-1H-benzo[d]imidazole-4-carboxamide] | 240 |
| O=C(NCC1CCCCN1)c1ccc(O)c2[nH]c(C3CC3)nc12 (stereo not drawn) [Example 7, 2-Cyclopropyl-4-hydroxy-N-(piperidin-2-ylmethyl)-1H-benzo[d]imidazole-7-carboxamide] | 100 |
| O=C(NCCN1CCNCC1)c1ccc(O)c2[nH]c(-c3cccs3)nc12 [Example 36, 7-Hydroxy-N-[2-(piperazin-1-yl)ethyl]-2-(thiophen-2-yl)-1H-benzo[d]imidazole-4-carboxamide] | 210 |
| O=C(NCC1CCCCN1)c1ccc(O)c2[nH]c(C3CCCC3)nc12 (stereo not drawn) [Example 14, 2-cyclopentyl-4-hydroxy-N-(piperidin-2-ylmethyl)-1H-benzo[d]imidazole-7-carboxamide] | 1300 |
| O=C(N[C@H]1CCCNC1)c1ccc(O)c2[nH]c(C3CC4CCC3C4)nc12 (stereo partly drawn) [Example 52, 2-(Bicyclo[2.2.1]heptan-2-yl)-7-hydroxy-N-((S)-piperidin-3-yl)-1H-benzo[d]imidazole-4-carboxamide] | 150 |
